Laboratory results from patent US20250040503A1, “METHOD FOR PRODUCING HAPLOID, AND DOUBLED HAPLOID BETA VULGARIS PLANTS BY MICROSPORE CULTURE” (KWS SAAT SE & Co. KGaA, priority 2021, published 2025).
“Also recorded” adds a separate entry of the source.

Test system: Beta vulgaris (sugar beet) microspores
Assay: Callus induction from isolated sugar beet microspores (microspore culture)
Type: cell-based
Settings: for callus induction potential in comparison to TSA: comparator TSA 5 μM, same time point, duration and buffer
Description: The experimental set-up is detailed in the below Examples. In the Figures, each column represents a different genotype. […] Time point, duration and buffer used were always identical for all treatments in the different rows. The different rows thus only differ from each other in the kind of inhibitor used.
Bracteoles are cut off the inflorescence and buds bigger than 1.8 mm are removed. Remaining part is divided into smaller pieces, preferably pieces of 1-1.5 cm. Buds smaller than 1.8 mm contain typically microspores at the tetrad and uninuclear developmental stage, which are the optimal developmental stages for further progressing. However, it should be noted that due to broad variation of different genotypes and donor sources (e.g., monogerm and multigerm), the correlation between the maximum flower bud size and nuclear stages of the microspores needs to be established for each genotype individually. The determination of the nuclear stages is carried out using a fluorescence-based staining method. The method contains fixation of the cells for instances with Ethanol acetic acid and DAPI staining (Kim, Moon-Za, and In-Chang Jang. “Rapid Assessment of Microspore Development Stage in Pepper Using DAPI and Ferric chloride.” Journal of Plant Biotechnology 2.3 (2000): 129-134.).
The flower shoot segments are transferred to isolation buffer, e.g., in a blending device and 40 ml (isolation buffer, Table 1) is added. The Isolation buffer contains macro- and microsalts, amino acids, monosaccharides and one or more complex protein compositions, pH is adjusted to pH 7.5. The complex protein composition or its source comprises preferably hydrolysed or partially hydrolysed protein matter or protein source. It can derive from any source that is known or that be applicable in addition, such as milk (such as, casein, whey), animal (such as, meat, fish), cereal (such as, rice, corn), plant (such as, soybean) or its combination. This proteinoid comprises milk protein isolates, as described herein lactoprotein concentrate, casein isolates, casein hydrolysate, lactalbumin, casein-sodium or calcium caseinate, full cow's milk, partially or completely skimmed milk, soy protein isolate, soybean protein concentrate etc. In one embodiment, complex protein composition comprises the protein source of the milk protein deriving from bovine milk.
The material is homogenized, e.g., by means of a homogenizer such as a Waring blender or sonication device at around 3000 rpm for 1 min. The crude cell suspension is passed stepwise through cell strainers of pore sizes between 25 μm and 100 μm. The purified suspension is transferred into tubes for subsequent centrifugation at ˜200 g for 3 min.
The supernatant is removed and the pellet is resuspended in a suitable amount of isolation buffer. An aliquot of the cell solution is taken for evaluation of the number of cells per ml by means of a counting chamber. Cell density is adjusted preferably to a cell density of 25,000 to 500,000 cells with TM media.
If the HDACi trichostatin A (TSA) is used, it is dissolved in dimethylsulfoxide (DMSO) to a final concentration of between 1 nM and 10 μM, preferably 100 nM to 10 μM, more preferably 1 μM to 10 μM, depending on the genotype and the donor sources (e.g., monogerm and multigerm). Other non-limiting examples of HDACi which may be used belong to the class of hydroxamic acids and hydroxamates, such as vorinostat (SAHA), belinostat (PXD101), LAQ824, and panobinostat (LBH589). Other non-limiting examples of HDACis for use according to the invention include cyclic tetrapeptides (such as trapoxin B) and depsipeptides, such as romidepsin (FK228), benzamides such as entinostat (MS-275), C1994, and mocetinostat (MGCD0103), electrophilic ketones, and aliphatic acid compounds such as phenylbutyrate and valproic acid.
After 1 to 10 days incubation at 32° C. the TSA is removed by centrifugation preferably at ˜200 g.

O=C(CCCCCCC(=O)Nc1ccccc1)NO [SAHA, vorinostat]
toxicity in comparison to TSA (SAHA 1 μM and 5 μM vs TSA 5 μM, microspore culture): more toxic | callus induction (SAHA 1 μM and 5 μM, same buffer as TSA, six genotypes, FIG. 4): good effect on some genotypes | callus induction potential in comparison to TSA: less effective than TSA

CC(=O)N1c2ccc(-c3ccc(C(=O)O)cc3)cc2[C@H](Nc2ccc(Cl)cc2)C[C@@H]1C [I-Bet 726]
callus induction (I-Bet 726 1 μM, 2.5 μM and 5 μM, FIG. 7): No callus induction

Cc1sc2c(c1C)C(c1ccc(Cl)cc1)=N[C@@H](CC(N)=O)c1nnc(C)n1-2 [CPI-203]
callus induction (CPI-203 1 μM, 2.5 μM and 5 μM, 6 genotypes, FIG. 6): slight positive effect; also recorded: very small, but positive, effect | callus induction potential in comparison to TSA: performed worse than TSA

CC(/C=C/C(=O)NO)=C\[C@@H](C)C(=O)c1ccc(N(C)C)cc1 [TSA, trichostatin A]
callus induction (TSA 5 μM, six genotypes, positive control of FIG. 4 to FIG. 7): strong callus induction in all six genotypes | callus induction performance at other concentrations (TSA in the lower μM or even nM range and in higher concentrations, data not shown): performed well | callus induction potential in comparison to TSA: performed best
